In patent US20250134952A1, “METHODS FOR IMPROVING THE EFFICACY OF HDAC INHIBITOR THERAPY AND PREDICTING THE RESPONSE TO TREATMENT WITH HDAC INHIBITOR” (INSTITUT NATIONAL DE LA SANTÉ ET DE LA RECHERCHE MÉDICALE, priority 2021, published 2025):

Assays:
[1] = test system: HP1α clusters in MCF7shctrl and shTau cells; test: HP1α clusters per nucleus, confocal immunofluorescence; type: cell-based, human; settings: 100 nM TSA, 24 h
Description: (A) Representative confocal sections of MCF7shctrl and shTau cells untreated or treated with 100 nM TSA for 24 h. […] (B) Quantification of HP1α clusters per nuclei visualized as described previously and realized on three independent experiments. (C) GADD45a and (D) p21 (CDKN1a) expression in MCF7shctrl and shTau cells untreated or treated with 100 nM TSA for 24 h were analyzed by real-time PCR and normalized to RPLO. Results are expressed, relative to the basal activity set to 1, as the mean±SD of three independent assays. (E) Tau tethering prevents adjacent reporter gene activity induced by TSA. GAL4UAS responsive luciferase reporter Hela stable cell line was transfected with GAL4DBD (GAL4) or GAL4DBD-Tau4R and then, 24 h later, treated with TSA (600 nM) for 24 h. The luciferase activity was determined as described in the Materials and Methods. (F) Ectopic Tau4R expression prevents adjacent reporter gene activity induced by TSA. […] The luciferase activity was determined as described in the Materials and Methods. […]
MCF7shctrl, MCF7shTau or transfected Hela cells with Tau4R and GFP-HP1α were fixed in 4% paraformaldehyde for 30 min at room temperature. […] Slides were then analyzed with a Zeiss LSM710 confocal laser scanning microscope (60× magnification). Images were collected in the Z direction at 0.80 μm intervals and quantifications were realized using the Image J plug-in.

[2] = test system: MCF7shctrl and MCF7shTau subclones; test: Cell death by staining and flow cytometric analysis (Zombie NIR); type: cell-based, human; settings: 100 nM TSA, 48 hours
Description: FIG. 1: Tau inhibition increases MCF7 breast cancer cell line sensitivity to TSA. (A) Tau protein expression in MCF7, MCF7shctrl and shTau were quantify by Elisa. (B) Effect of 100 nM TSA (48 h) on cell death in the MCF7shctrl and MCF7shTau subclones. Cell death was determined by staining and flow cytometric analysis as described in the materials and methods. (C) Effect of 100 nM TSA (48 h) on apoptosis in the MCF7shctrl and MCF7shTau subclones. Apoptosis was determined by flow cytometric analysis of the PI-positive and Annexin-V-positive cells as described in the materials and methods. (D) Cell cycle distribution was determined by FACS analysis of combined propidium iodide and EdU staining in MCF7shctrl and MCF7shTau in the absence or presence 100 nM TSA, 48 h. Data are mean±SD **P<0.01***P<0.001. […]
SH-SY5Y human neuroblastoma cells expressing Tau4R tagged with the streptavidin-binding peptide (SBP) (referred as SH-SY5Y-(SBP)Tau4R) (Chauderlier et al., 2018), SH-SY5Y-Tet-on-Tau4R, Hela cells, MCF7 and MDA-MB-231 were cultured in Dulbecco's Modified Eagle's Medium with 10% fetal bovine serum, 2 mM L-glutamine and 50 U/ml penicillin/streptomycin (Gibco) at 37° C. in 5% CO2 humidified air. […] For stable clones, luciferase activities were measured using the luciferase assay system (Promega) and normalized against protein concentration. […]

Question: Which “HP1α clusters per nucleus” value ([1]; Tau knocked down MCF7 cells) does the source give for `CC(/C=C/C(=O)NO)=C\[C@@H](C)C(=O)c1ccc(N(C)C)cc1` [TSA, 2,4-Heptadienamide, 7-[4-(dimethylamino)phenyl]-N-hydroxy-4,6-dimethyl-7-oxo-, (2E,4E,6R)-] here?
Answer: 3 clusters

Question: And the “HP1α clusters per nucleus” value ([1]; sh-control MCF7 cells)?
Answer: five

Question: And the “number of dead cells” value ([2]; Tau-knockdown cells (MCF7shTau))?
Answer: > 50%

Question: What about the “number of dead cells” value ([2]; sh-ctrl cells (MCF7shctrl)) of the same molecule?
Answer: 38%
